This passage reports mutagenic call results from PubChem BioAssay AID1259407 (Chemical Carcinogenesis Research Information System (CCRIS), 2018).

Activity calls are given as the source filed them. The rule behind the calls is not given here.

The data set deals with CCRIS mutagenicity, Ames/micronucleus/aberration tests. The data set is described as follows: CCRIS mutagenicity studies.
Where [1] appears, read: Test System: AMES SALMONELLA TYPHIMURIUM, Strain/Indicator: TA97, Metabolic Activation: HAMSTER, LIVER, S-9, AROCLOR 1254 (10%), Method: PREINCUBATION
Where [2] appears, read: Test System: AMES SALMONELLA TYPHIMURIUM, Strain/Indicator: TA97, Metabolic Activation: NONE, Method: PREINCUBATION
The mark [3] stands for this setting: Test System: AMES SALMONELLA TYPHIMURIUM, Strain/Indicator: TA97, Metabolic Activation: RAT, LIVER, S-9, AROCLOR 1254 (10%), Method: PREINCUBATION
The mark [4] stands for this setting: Test System: AMES SALMONELLA TYPHIMURIUM, Strain/Indicator: TA98, Metabolic Activation: HAMSTER, LIVER, S-9, AROCLOR 1254 (10%), Method: PREINCUBATION
Where [5] appears, read: Test System: AMES SALMONELLA TYPHIMURIUM, Strain/Indicator: TA98, Metabolic Activation: NONE, Method: PREINCUBATION
Where [6] appears, read: Test System: AMES SALMONELLA TYPHIMURIUM, Strain/Indicator: TA98, Metabolic Activation: RAT, LIVER, S-9, AROCLOR 1254 (10%), Method: PREINCUBATION
[7] abbreviates: Test System: AMES SALMONELLA TYPHIMURIUM, Strain/Indicator: TA100, Metabolic Activation: HAMSTER, LIVER, S-9, AROCLOR 1254 (10%), Method: PREINCUBATION
Where [8] appears, read: Test System: AMES SALMONELLA TYPHIMURIUM, Strain/Indicator: TA100, Metabolic Activation: NONE, Method: PREINCUBATION
The mark [9] stands for this setting: Test System: AMES SALMONELLA TYPHIMURIUM, Strain/Indicator: TA100, Metabolic Activation: NONE, Method: STANDARD PLATE.
The mark [10] stands for this setting: Test System: AMES SALMONELLA TYPHIMURIUM, Strain/Indicator: TA100, Metabolic Activation: RAT, LIVER, S-9, AROCLOR 1254 (10%), Method: PREINCUBATION
Setting [11] is: Test System: AMES SALMONELLA TYPHIMURIUM, Strain/Indicator: TA1535, Metabolic Activation: HAMSTER, LIVER, S-9, AROCLOR 1254 (10%), Method: PREINCUBATION
Setting [12] is: Test System: AMES SALMONELLA TYPHIMURIUM, Strain/Indicator: TA1535, Metabolic Activation: NONE, Method: PREINCUBATION
The mark [13] stands for this setting: Test System: AMES SALMONELLA TYPHIMURIUM, Strain/Indicator: TA1535, Metabolic Activation: RAT, LIVER, S-9, AROCLOR 1254 (10%), Method: PREINCUBATION

On to `O=S(=O)(O)c1ccc(N=Nc2c(O)ccc3cc(S(=O)(=O)O)ccc23)cc1`, for which the mutagenic call is “inactive; negative” (End Point: IN VITRO CHROMOSOMAL ABERRATIONS, Test System: CHO CELLS, Metabolic Activation: NONE); “inactive; negative” (End Point: IN VITRO CHROMOSOMAL ABERRATIONS, Test System: CHO CELLS, Metabolic Activation: RAT, LIVER, S-9, AROCLOR 1254); “inactive; negative” under setting [1]; “inactive; negative” (Test System: AMES SALMONELLA TYPHIMURIUM, Strain/Indicator: TA97, Metabolic Activation: HAMSTER, LIVER, S-9, AROCLOR 1254 (30%), Method: PREINCUBATION); “inactive; negative” under setting [2]; “inactive; negative” under setting [3]. Besides, the mutagenic call (Test System: AMES SALMONELLA TYPHIMURIUM, Strain/Indicator: TA97, Metabolic Activation: RAT, LIVER, S-9, AROCLOR 1254 (30%), Method: PREINCUBATION) was “inactive; negative”; the mutagenic call under setting [4] is “inactive; negative”; the mutagenic call (Test System: AMES SALMONELLA TYPHIMURIUM, Strain/Indicator: TA98, Metabolic Activation: HAMSTER, LIVER, S-9, AROCLOR 1254 (30%), Method: PREINCUBATION) was “inactive; negative”; the mutagenic call under setting [5] is “inactive; negative”; the mutagenic call (Test System: AMES SALMONELLA TYPHIMURIUM, Strain/Indicator: TA98, Metabolic Activation: NONE, Method: STANDARD PLATE) was “inactive; negative”; the mutagenic call (Test System: AMES SALMONELLA TYPHIMURIUM, Strain/Indicator: TA98, Metabolic Activation: RAT LIVER S-9, AROCLOR 1254, Method: STANDARD PLATE) was “inactive; negative”. Besides, the mutagenic call under setting [6] was “inactive; negative”; the mutagenic call (Test System: AMES SALMONELLA TYPHIMURIUM, Strain/Indicator: TA98, Metabolic Activation: RAT, LIVER, S-9, AROCLOR 1254 (30%), Method: PREINCUBATION) was “inactive; negative”; the mutagenic call (Test System: AMES SALMONELLA TYPHIMURIUM, Strain/Indicator: TA98, Metabolic Activation: RAT, LIVER, S-9, PHENOBARBITAL, Method: PREINCUBATION) is “inactive; negative”; the mutagenic call under setting [7] is “inactive; negative”; the mutagenic call (Test System: AMES SALMONELLA TYPHIMURIUM, Strain/Indicator: TA100, Metabolic Activation: HAMSTER, LIVER, S-9, AROCLOR 1254 (30%), Method: PREINCUBATION) was “inactive; negative”; the mutagenic call under setting [8] was “inactive; negative”. Besides, the mutagenic call by setting is: under setting [9], “inactive; negative”; (Test System: AMES SALMONELLA TYPHIMURIUM, Strain/Indicator: TA100, Metabolic Activation: RAT LIVER S-9, AROCLOR 1254, Method: STANDARD PLATE) “inactive; negative”; under setting [10], “inactive; negative”; (Test System: AMES SALMONELLA TYPHIMURIUM, Strain/Indicator: TA100, Metabolic Activation: RAT, LIVER, S-9, AROCLOR 1254 (30%), Method: PREINCUBATION) “inactive; negative”; (Test System: AMES SALMONELLA TYPHIMURIUM, Strain/Indicator: TA100, Metabolic Activation: RAT, LIVER, S-9, PHENOBARBITAL, Method: PREINCUBATION) “inactive; negative”; under setting [11], “inactive; negative”. Further, the mutagenic call is “inactive; negative” (Test System: AMES SALMONELLA TYPHIMURIUM, Strain/Indicator: TA1535, Metabolic Activation: HAMSTER, LIVER, S-9, AROCLOR 1254 (30%), Method: PREINCUBATION); “inactive; negative” under setting [12]; “inactive; negative” under setting [13]; “inactive; negative” (Test System: AMES SALMONELLA TYPHIMURIUM, Strain/Indicator: TA1535, Metabolic Activation: RAT, LIVER, S-9, AROCLOR 1254 (30%), Method: PREINCUBATION).
Regarding `C/C=C(\Cl)C=O`, the mutagenic call under setting [8] was “active; positive” and the mutagenic call (Test System: AMES SALMONELLA TYPHIMURIUM, Strain/Indicator: TA100, Metabolic Activation: NONE, Method: PREINCUBATION, LIQUID INCUBATION) is “active; positive”.
Regarding `Cc1cc(C)cc([N+](=O)[O-])c1`, the mutagenic call was “inactive; negative” under setting [5]; “inactive; negative” (Test System: AMES SALMONELLA TYPHIMURIUM, Strain/Indicator: TA98, Metabolic Activation: RAT, LIVER, S-9, KANECHLOR 500, Method: PREINCUBATION); “inactive; negative” under setting [8]; “inactive; negative” (Test System: AMES SALMONELLA TYPHIMURIUM, Strain/Indicator: TA100, Metabolic Activation: RAT, LIVER, S-9, KANECHLOR 500, Method: PREINCUBATION).
For the compound `C=CC(=O)OCCBr`, the mutagenic call is, setting by setting: under setting [1], “inactive; negative”; under setting [2], “inactive; negative”; under setting [3], “inactive; negative”; under setting [4], “inactive; negative”; under setting [5], “inactive; negative”; under setting [6], “inactive; negative”. Besides, the mutagenic call is, setting by setting: under setting [7], “active; positive”; under setting [8], “inactive; negative”; under setting [10], “active; positive”; under setting [11], “active; positive”; under setting [12], “active; positive”; under setting [13], “active; positive”.
Take `CN(C)CC(=O)O`: the mutagenic call is “inactive; negative” under setting [9] and “inactive; negative” (Test System: AMES SALMONELLA TYPHIMURIUM, Strain/Indicator: TA100, Metabolic Activation: RAT, LIVER, S-9, AROCLOR 1254, Method: STANDARD PLATE).
